For 36 molecules, IC50 results are on record in patent US8163756B2 (priority 2004, dated 2012).

B-Raf(V599E) kinase, sequence (P15056 with tags, fused parts or gaps V600E): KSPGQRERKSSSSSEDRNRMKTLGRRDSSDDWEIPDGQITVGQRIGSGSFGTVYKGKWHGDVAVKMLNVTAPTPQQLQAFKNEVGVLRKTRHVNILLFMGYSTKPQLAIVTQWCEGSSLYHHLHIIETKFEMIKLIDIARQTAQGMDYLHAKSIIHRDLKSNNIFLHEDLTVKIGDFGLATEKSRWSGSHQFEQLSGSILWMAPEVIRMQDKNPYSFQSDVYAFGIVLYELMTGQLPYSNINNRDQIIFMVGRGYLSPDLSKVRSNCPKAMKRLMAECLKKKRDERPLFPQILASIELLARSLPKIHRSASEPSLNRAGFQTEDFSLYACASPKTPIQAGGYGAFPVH

One test has as its target B-Raf(V599E) kinase (Homo sapiens, UniProt P15056, V600E). Description: B-Raf(V599E) kinase assay B1 (construct 1, MEK1 substrate, coupled spectrophotometric). The class given is biochemical.
Conditions: not given
The method, then: The test compounds were incubated with the reaction mixtureat 30° C. for 2 h. […] The reaction rate was calculated using the […] time frame. […] IC50 values were calculated from a series of percent inhibition values determined at a range of inhibitor concentrations using software routines as implemented in the GraphPad Prism software package.
In turn, `COc1cccc(-n2nc(C(C)(C)C)cc2NC(=O)Nc2cccc(Cl)c2)c1` [Example 231, 1-(3-t-butyl-1-(3-methoxyphenyl)-1H-pyrazol-5-yl)-3-(3-chlorophenyl)urea] yielded an IC50 of 27 nM.
`CC(C)(C)c1cc(NC(=O)Nc2ccc(F)cc2)n(-c2ccc3c(c2)CCC(=O)N3)n1` [Example 317] registered an IC50 of 36 nM.
`CC(C)(C)c1cc(NC(=O)Nc2cc(F)c(F)c(F)c2)n(-c2cc(CC(N)=O)c3ccccc3c2)n1` [Example 92, 1-(1-(4-(2-amino-2-oxoethyl)naphthalen-2-yl)-3-t-butyl-1H-pyrazol-5-yl)-3-(3,4,5-trifluorophenyl)urea]: the IC50 was 8.2 nM.
Same read-out and setting: then `CC(C)(C)c1cc(NC(=O)Nc2cccc(F)c2F)n(-c2ccc(CO)cc2)n1` [Example 246, 1-{3-t-butyl-1-[4-(hydroxymethyl)phenyl]-1H-pyrazol-5-yl}-3-(2,3-difluoro-phenyl)urea], with 39 nM; and `COc1ccc(-n2nc(C(C)(C)C)cc2NC(=O)Nc2cccc(C(F)(F)F)c2)cc1` [Example 238, 1-[3-t-butyl-1-(4-methoxyphenyl)-1H-pyrazol-5-yl]-3-(3-trifluoromethylphenyl)urea], with 65 nM.
`CC(C)(C)c1cc(NC(=O)Nc2ccccc2)n(-c2cc(CN)c3ccccc3c2)n1` [Example 295, 1-[1-(4-(aminomethyl)naphthalen-2-yl)-3-t-butyl-1H-pyrazol-5-yl]-3-phenylurea] showed an IC50 of 52 nM.
The molecule `CC(C)(C)c1cc(NC(=O)Nc2ccc(F)cc2F)n(-c2cccc(CC(=O)O)c2)n1` [Example 369, 2-(3-(3-t-butyl-5-(3-(2,4-difluorophenyl)-ureido)-1H-pyrazol-1-yl)phenyl)acetic acid] yielded an IC50 of 15 nM.
The same measure, in the same setting: then `CC(C)(C)c1cc(NC(=O)Nc2ccc(F)cc2F)n(-c2ccc3c(c2)CCC(=O)N3)n1` [Example 321, 1-(3-t-butyl-1-(2-oxo-1,2,3,4-tetrahydro-quinolin-6-yl)-1H-pyrazol-5-yl)-3-(2,4-difluorophenyl)urea], with 7.2 nM.
On the same count and under the same terms, then `CC(C)(C)c1cc(NC(=O)Nc2ccc(F)c(F)c2F)n(-c2ccc3c(c2)CCC(=O)N3)n1` [Example 322, 1-(3-t-butyl-1-(2-oxo-1,2,3,4-tetrahydro-quinolin-6-yl)-1H-pyrazol-5-yl)-3-(2,3,4-trifluorophenyl)urea], with 4.1 nM.
Molecule `CC(C)(C)c1cc(NC(=O)Nc2ccccc2F)n(-c2cccc(CC(=O)O)c2)n1` [Example 371, 2-(3-(3-t-butyl-5-(3-(2-fluorophenyl)-ureido)-1H-pyrazol-1-yl)phenyl)acetic acid] came in with an IC50 of 10 nM.
Still for that read-out and setting: then `CC(C)(C)c1cc(NC(=O)Nc2ccc(F)cc2F)n(-c2ccc3[nH]c(=O)ccc3c2)n1` [Example 332, 1-(3-t-butyl-1-(2-oxo-1,2-dihydroquinolin-6-yl)-1H-pyrazol-5-yl)-3-(2,4-difluorophenyl)urea], with 4.4 nM.
The same measure, in the same setting: then `C[C@H](NC(=O)Nc1cc(C(C)(C)C)nn1-c1cccc(C#N)c1)c1ccccc1` [Example 211, 1-[3-t-butyl-1-(3-cyanophenyl)-1H-pyrazol-5-yl]-3-((S)-1-phenylethyl)urea], with 785 nM; and `CC(C)(C)c1cc(NC(=O)Nc2cccc(Cl)c2Cl)n(-c2cccc(CC(=O)N3CC[C@@H](O)C3)c2)n1` [Example 443, 1-(3-t-butyl-1-(3-(2-((R)-3-hydroxypyrrolidin-1-yl)-2-oxoethyl)phenyl)-1H-pyrazol-5-yl)-3-(2,3-dichlorophenyl)urea], with 9 nM; and `CC(C)(C)c1cc(NC(=O)Nc2ccc3c(c2)OCO3)n(-c2cccc(CO)c2)n1` [Example 221, 1-(benzo[d][1,3]dioxol-5-yl)-3-(3-t-butyl-1-(3-(hydroxymethyl)phenyl)-1H-pyrazol-5-yl)urea], with 88 nM.
In turn, `CC(C)(C)c1cc(NC(=O)Nc2cccc(F)c2F)n(-c2cc(CC(N)=O)c3ccccc3c2)n1` [Example 90, 1-(1-(4-(2-amino-2-oxoethyl)naphthalen-2-yl)-3-t-butyl-1H-pyrazol-5-yl)-3-(2,3-difluorophenyl)urea] came in with an IC50 of 3.9 nM.
Still for that read-out and setting: under `CC(C)(C)c1cc(NC(=O)Nc2cccc(Cl)c2Cl)n(-c2cccc(CC(N)=O)c2)n1` [Example 25, 1-{1-[3-(2-amino-2-oxoethyl)phenyl]-3-t-butyl-1H-pyrazol-5-yl}-3-(2,3-dichlorophenyl)urea] stands 3.5 nM.
Same read-out and setting: then `CC(C)(C)c1cc(NC(=O)Nc2cccc(Cl)c2)n(-c2cccc(CO)c2)n1` [Example 222], with 47 nM; and `CC(C)NCCc1cccc(-n2nc(C(C)(C)C)cc2NC(=O)Nc2cccc(Cl)c2Cl)c1` [Example 259, 1-(3-t-butyl-1-(3-(2-(isopropylamino)ethyl)phenyl)-1H-pyrazol-5-yl)-3-(2,3-dichlorophenyl)urea], with 8.3 nM.
Still for that read-out and setting: then `CC(C)(C)c1cc(NC(=O)NC2CCCCC2)n(-c2ccc3c(c2)CNCC3)n1` [Example 327, 1-(3-t-butyl-1-(1,2,3,4-tetrahydroisoquinolin-7-yl)-1H-pyrazol-5-yl)-3-cyclohexylurea], with 330 nM; and `CC(C)(C)c1cc(NC(=O)Nc2ccccc2F)n(-c2cccc(CC(N)=O)c2)n1` [Example 393, 1-{1-[3-(2-amino-2-oxoethyl)phenyl]-3-t-butyl-1H-pyrazol-5-yl}-3-(2-fluorophenyl)urea], with 20 nM; and `COc1cccc(-n2nc(C(C)(C)C)cc2NC(=O)Nc2ccc3c(c2)OCO3)c1` [Example 234, 1-(benzo[d][1,3]dioxo-5-yl)-3-(3-t-butyl-1-(3-methoxyphenyl)-1H-pyrazol-5-yl)urea], with 32 nM.
As for `COc1cccc(-n2nc(C(C)(C)C)cc2NC(=O)Nc2ccc(F)cc2)c1` [Example 230, 1-(3-t-butyl-1-(3-methoxyphenyl)-1H-pyrazol-5-yl)-3-(4-fluorophenyl)urea], the IC50 came out at 52 nM.
On the same count and under the same terms, under `CC(C)(C)c1cc(NC(=O)Nc2ccc(Cl)cc2)n(-c2ccc3c(c2)CCC(=O)N3)n1` [Example 315, 1-(3-t-butyl-1-(2-oxo-1,2,3,4-tetrahydro-quinolin-6-yl)-1H-pyrazol-5-yl)-3-(4-chlorophenyl)urea] stands 186 nM.
Molecule `CCOC(=O)Cc1cc(-n2nc(C(C)(C)C)cc2NC(=O)Nc2ccc(Cl)cc2)cc2ccccc12` [Example 298, (3-{3-t-butyl-5-[3-(4-chlorophenyl)ureido]pyrazol-1-yl}naphthalen-1-yl)acetic acid ethyl ester] showed an IC50 of 83 nM.
Molecule `CC(C(=O)O)c1cccc(-n2nc(C(C)(C)C)cc2NC(=O)Nc2cccc(Cl)c2Cl)c1` (stereo not drawn) [Example 248, 2-(3-(3-t-butyl-5-(3-(2,3-dichlorophenyl)ureido)-1H-pyrazol-1-yl)phenyl)propanoic acid] had an IC50 of 8.1 nM.
The same measure, in the same setting: under `CC(C)(C)c1cc(NC(=O)Nc2ccc3c(c2)OCO3)n(-c2cccc(CC(N)=O)c2)n1` [Example 395, 1-{1-[3-(2-amino-2-oxoethyl)phenyl]-3-t-butyl-1H-pyrazol-5-yl}-3-(benzo[d][1,3]dioxol-5-yl)urea] stands 50 nM; under `CC(C)(C)c1cc(NC(=O)Nc2cccc(Br)c2)n(-c2cccc(CO)c2)n1` [Example 223, 1-{3-t-butyl-1-[3-(hydroxymethyl)phenyl]-1H-pyrazol-5-yl}-3-(3-bromophenyl)urea], 54 nM.
Still for that read-out and setting: then `Cc1cc(NC(=O)Nc2cc(C(C)(C)C)nn2-c2ccc3c(c2)C(=O)NCC3)no1` [Example 314, 1-(3-t-butyl-1-(1-oxo-1,2,3,4-tetrahydroiso-quinolin-7-yl)-1H-pyrazol-5-yl)-3-(5-methylisoxazol-3-yl)urea], with 266 nM.
Molecule `CC(C)(C)c1cc(NC(=O)Nc2cc(F)c(F)c(F)c2)n(-c2ccc3c(c2)CCC(=O)N3)n1` [Example 324, 1-(3-t-butyl-1-(2-oxo-1,2,3,4-tetrahydro-quinolin-6-yl)-1H-pyrazol-5-yl)-3-(3,4,5-trifluorophenyl)urea] showed an IC50 of 17 nM.
On the same count and under the same terms, then `CC(C)(C)c1ncc(NC(=O)Nc2cccc(Oc3ccccc3)c2)c(-c2ccccc2)n1` [Example 280, 1-(2-t-butyl-4-phenylpyrimidin-5-yl)-3-(3-phenoxyphenyl)urea], with 275 nM; and `CC(C)(C)c1cc(NC(=O)NC2CCCC2)n(-c2cc(CC(N)=O)c3ccccc3c2)n1` [Example 93, 1-(1-(4-(2-amino-2-oxoethyl)naphthalen-2-yl)-3-t-butyl-1H-pyrazol-5-yl)-3-cyclopentylurea], with 60 nM.
Same read-out and setting: under `CC(C)(C)c1cc(NC(=O)Nc2ccc(F)cc2F)n(-c2ccc3ncccc3c2)n1` [Example 284, 1-(3-t-butyl-1-(quinolin-6-yl)-1H-pyrazol-5-yl)-3-(2,4-difluorophenyl)urea] stands 8.5 nM; under `CC(C)(C)c1cc(NC(=O)Nc2cccc(Cl)c2Cl)n(-c2ccc(CC(N)=O)cc2)n1` [Example 492, 1-(1-(4-(2-amino-2-oxoethyl)phenyl)-3-t-butyl-1H-pyrazol-5-yl)-3-(2,3-dichlorophenyl)urea], 6.4 nM.

The test is the same for the next values; noted with them: Method B1; read-out: B-Raf Data.
Consider `O=C(O)Cc1cccc(-n2nc(-c3cccs3)cc2NC(=O)Nc2cccc(Cl)c2Cl)c1` [Example 366, 2-(3-(5-(3-(2,3-dichlorophenyl)-ureido)-3-(thiophen-2-yl)-1H-pyrazol-1-yl)phenyl)acetic acid], for which the IC50 came out at 157 nM.
As to `CC(C)(C)c1cc(NC(=O)Nc2ccc(F)c(F)c2F)n(-c2cccc(CC(N)=O)c2)n1` [Example 435, 1-(1-(3-(2-amino-2-oxoethyl)phenyl)-3-t-butyl-1H-pyrazol 5-yl)-3-(2,3,4-trifluorophenyl)urea], the IC50 stood at 7.3 nM.
With `CC(C)(C)c1cc(NC(=O)Nc2cccc(F)c2F)n(-c2cccc(CC(N)=O)c2)n1` [Example 394, 1-{1-[3-(2-amino-2-oxoethyl)phenyl]-3-t-butyl-1H-pyrazol-5-yl}-3-(2,3-difluorophenyl)urea], the IC50 is 8.8 nM.
